Test results published in patent US20190358238A1, “ALLOSTERIC ANTAGONISTS OF GPRC6a AND THEIR USE IN MITIGATING PROTEINOPATHIES” (UNIVERSITY OF SOUTH FLORIDA, priority 2016, published 2019).
“Also recorded” adds a separate entry of the source.

What was measured:
[1] = tested on: BE(2) M17 cells; test: alpha synuclein expression in BE(2) M17 cells stably transfected with wild-type alpha synuclein; type: cell-based; conditions: 72 hours, relative to GAPDH
Protocol: FIG. 10. Shown are BE(2) M17 cells stably transfected with wild-type alpha synuclein (16 kDa) treated with GPRC6a antagonist drug 47661 for 72 hours. […] Statistical analysis was performed using One-way Anova with Fisher's LSD multiple comparison test as post hoc. (n=3 independent experiments).
BE(2) M17 cells were stably transfected with wild-type alpha synuclein (16 kDa) and treated with GPRC6a antagonist drug 47661 for 72 hours. Samples were run on a gel. […] Statistical analysis was performed using One-way Anova with Fisher's LSD multiple comparison test as post hoc.

[2] = half-life of Drug 47661 in naive mice after IV injection; type: in vivo, mouse
Protocol: FIG. 9. Graphs show relative half-life of Drug 47661. Naïve mice were injected with 5 mg/kg of Drug 47661 IV. Serial submandibular bleeds were taken 15 min and 60 min post IV injection. […] (N=3).
The half-life of GPRC6A antagonist Drug 47661 was examined. Naïve mice were injected with 5 mg/kg of Drug 47661 by IV. Serial submandibular bleeds were taken 15 min and 60 min post IV injection. […] (N=3). Shown in FIG. 9 is a graph showing the relative half-life of Drug 47661.

[3] = tested on: PS 19 tau (P301S) transgenic mice; test: acute bolus injection into PS19 tau (P301S) transgenic mice, western blot after 72 hours; type: in vivo, mouse
Protocol: FIG. 4. GPRC6a allosteric antagonist impacts tau levels and modifies autophagy markers in PS 19 tau transgenic mice. PSI9 (P301S) mice (bottom left of panel) show tau AT8 accumulation received an acute bolus injection of vehicle on one hemisphere and the antagonist (Drug 47661, 78 ng) on the opposite hemisphere for 72 hours.
(§1) Some of the compounds have 9-fold more selectivity for GPRC6a than our current compound in a FRET-based assay (H. Johansson, et al. J. Med. Chem. 2015, 58, 8938), and an excess of 50 derivatives to these current lead compounds will be analyzed. A tetracycline inducible “on” tau fusion-Dendra2 stable cell line will be used, which is a green-to-red irreversible photoswitchable fluorescent protein activated by UV-violet/blue light. We will induce tau expression with tetracycline (1 μg/mL) for 24 h, then photo convert tau dendra2-green with blue light (488 nm) for 10 minutes to tau-dendra2-red for monitoring kinetics of tau. […] We will treat cells with GPRC6a allosteric antagonists for 72 hours with continual red fluorescent output readings every 6 hours (553 nm ex and 573 nm em). This assay will measure tau degradation kinetics over time (time 0 point at which photo switch occurs from tau-green to tau-red) (FIG. 5). Agents that govern tau biology will alter the rate of tau degradation (tau-red). Newly synthesize tau (tau-green) will fluoresce green to be measure on a separated channel. We will also co-label cells with DAPI nuclear stain to account for cell loss and nuclear chromatin changes. We will use Biotek®@ Cytation™ 3 Cell Imaging Multi-Mode Reader located at Byrd Institute. We will use a 96 well semi-high throughput platform with GPRC6a antagonist concentrations ranging from (10 nM-100 μM). We will also perform cell toxicity assays (Cyto Tox-ONE LDH Membrane Integrity Assay, Promega). We will perform western blot analysis in C3H/htau cells from GPRC6a antagonists that reduce tau levels more than 30% at 3 μM or below and with no more than 5-10% toxicity. We will measure autophagy related makers to determine the mechanism for tau reduction.

[4] = tested on: primary neurons; test: tau in primary neurons after 72 hours treatment; type: cell-based; conditions: 10-100 nM, endogenous tau, nanomolar efficacy
Protocol: (§2) FIG. 3A, FIG. 3B, FIG. 3C, FIG. 3D. C3H/htau cells treated with siRNA to GPRC6A show decreased tau expression compared to scrambled siRNA (FIG. 3A). GPRC6a allosteric antagonist Cpd#3 (Drug 47661) (0-250 tLM) decreases monomeric and high molecular weight (HMW) tau multimers (FIG. 3B) in C3H/htau cells. FIG. 3C-FIG. 3D show decreased tau in primary neurons after (Drug 47661) decreases tau at 10-100 nM. All treatments=72 hours (n=3 independent exp.).
Some of the compounds have 9-fold more selectivity for GPRC6a than our current compound in a FRET-based assay (H. Johansson, et al. J. Med. Chem. 2015, 58, 8938), and an excess of 50 derivatives to these current lead compounds will be analyzed. A tetracycline inducible “on” tau fusion-Dendra2 stable cell line will be used, which is a green-to-red irreversible photoswitchable fluorescent protein activated by UV-violet/blue light. We will induce tau expression with tetracycline (1 μg/mL) for 24 h, then photo convert tau dendra2-green with blue light (488 nm) for 10 minutes to tau-dendra2-red for monitoring kinetics of tau. […] We will treat cells with GPRC6a allosteric antagonists for 72 hours with continual red fluorescent output readings every 6 hours (553 nm ex and 573 nm em). […] We will use Biotek®@ Cytation™ 3 Cell Imaging Multi-Mode Reader located at Byrd Institute. […]

[5] = tested on: C3H/htau cells; test: tau expression in C3H/htau cells treated 72 hours, samples run on a gel; type: cell-based; conditions: for monomeric and high molecular weight (HMW) tau multimers: 72 hours
Protocol: as §2
FIG. 6. C3H/htau cells treated with GPRC6A antagonist show decreased tau expression compared to vehicle (dotted line and first lane in each well). All GPRC6a allosteric antagonists Drug 47661 (red), PF020 (blue), PF037 (black) (0-100 μM) decreased monomeric and high molecular weight (HMW) tau multimers in C3H/htau cells at different concentrations. All treatments=72 hours (n=3 independent exp.).
rTg4510 tau mice comprise of the tau P301L mutation which expresses in the forebrain and hippocampus (K. Santacruz, et al. Science 2005, 309, 476). […] Accumulation of ptau occurs largely between 3 and 9 mo of age. Additionally, high-molecular weight tau multimers/oligomers and nitrated tau also accumulate in rTg4510 tau transgenic mice compared to non-transgenic littermates (J. B. Hunt, Jr., et al. J. Neurosci. 2015, 35, 14842). […] In stably tau overexpressing HeLa cells (C3H/htau), siRNA to GPRC6a reduced receptor expression coupled with a reduction in tau […]. We will repress GPRC6a expression in the CNS with rAAV-shRNA-GPRC6a to reduce receptor signaling.
as §1
C3H/htau cells were treated for 72 hours with varying concentrations of GPRC6A antagonist Drug 47661, PF020, or PF037. Samples were run on a gel. […]

[6] = 78 ng bolus injection, western blot

Structure (SMILES) | monomeric (16 kDa) and oligomeric (>75 kDa) alpha synuclein expression [1] | clearance rate ([2]; 5 mg/kg IV (FIG. 9 legend)) [Lh/kg] | half-life ([2]; mouse, blood, 5 mg/kg IV) [min] | clearance ([2]; mouse, blood, 5 mg/kg IV, read-out: clearance rate (converted)) [mL/min/kg] | Vd ([2]; mouse, blood, 5 mg/kg IV, read-out: volume of distribution) [L/kg] | beclin 1 [3, 6] | mTOR [3, 6] | p62 [3, 6] | tau expression (total tau) ([3]; 78 ng one-time bolus injection, entorhinal cortex, vs vehicle hemisphere) | tau in primary neurons [4] | monomeric and high molecular weight (HMW) tau multimers ([5]; 0-100 μM, vs vehicle, FIG. 6) | monomeric and high molecular weight (HMW) tau multimers ([5]; 0-250 tLM, FIG. 3B) | clearance among monomeric, insoluble, and oligomeric tau ([5]; micromolar efficacy)
CN(CC(=O)c1c(-c2ccccc2)[nH]c2ccccc12)CC(=O)N1CCOCC1 [Drug 47661, 2-(methyl(2-morpholino-2-oxoethyl)amino)-1-(2-phenyl-1H-indol-3-yl)ethan-1-one] | decreased | 4.5 | 9.6 | 75 | 1.07 | increased | decreased | decreased | modestly reduced | reduced; also recorded: decreased tau | decreased | decreases | significant clearance
O=C(CN1CCCC(C(=O)N2CCOCC2)C1)c1c(-c2ccccc2)[nH]c2ccccc12 (stereo not drawn) [PF020, 2-(3-(morpholine-4-carbonyl)piperidin-1-yl)-1-(2-phenyl-1H-indol-3-yl)ethan-1-one] | – | – | – | – | – | – | – | – | – | – | decreased | – | –
CN(CCN1CCOCC1)CC(=O)c1c(-c2ccccc2)[nH]c2ccccc12 [PF037] | – | – | – | – | – | – | – | – | – | – | decreased | – | –
